{"source": "patent US20140088063A1", "about": "“AGENTS FOR TREATING NEURODEGENERATIVE DISORDERS” (priority 2010, published 2014)", "key": {"male white rats [1]": {"system": "male white rats", "assay": "Behavioral despair test (forced swimming)", "type": "in vivo", "conditions": "3 h", "protocol": "This behavior reflects a state of despair which can be reduced by several agents which are therapeutically effective in human depression.\n(§1) The male white rats (250-280 g) were treated intraperitoneally according to procedure described below. The animals were divided into five groups of ten rats and treated as follows. The rats of first group were used as controls. They were injected intraperitoneally with distilled water 24 h, 3 h, 40 minutes before the experiment. Second group was treated with Compound I′ at a dose 100 mg/kg i.p. 24 h, 3 h, 40 minutes before the experiment. Third group was treated with Amitriptyline at a dose 10 mg/kg i.p. using the same regimen as in groups above.\nThe antidepressant activity was assessed by estimating immobility time as a period in which animal remains immobile during swimming (see Table 2). Statistical data processing was performed using “BioStat” tool for Windows."}, "male white rats [2]": {"system": "male white rats", "assay": "Modified behavioral despair test (water wheel)", "type": "in vivo", "conditions": "3 h", "protocol": "Nomura et al. (1982) published a modification of the despair swim test in mice involving small water wheel set in a water tank. Mice placed on this apparatus turned the wheel vigorously but when they abandoned attempts to escape from the water, the wheel stopped turning. Antidepressant activity of compounds was assessed by counting the number of rotations of the water wheel (see Table 4).\nas §1, with “Ia” for “I′”\nThe antidepressant activity was assessed by estimating immobility time as a period in which animal remains immobile during swimming (see Table 4). Statistical data processing was performed using “BioStat” tool for Windows."}, "C57BL/6J mice [3]": {"system": "C57BL/6J mice", "assay": "Learned helplessness test (compound of formula I′)", "type": "in vivo", "protocol": "As explained above, the learned helplessness test in mice is the well-known animal model to determine antidepressant efficacy of compounds. Basically when animals learned to be helpless are given antidepressant drugs, they unlearn helplessness and start exerting control over their environment. Antidepressant activity of compounds was assessed by estimating latency time as a period in which animal is not trying to escape from stress (see Table 3). […]"}, "[4]": {"conditions": "acute toxicity, known antidepressants for comparison; cited from earlier work"}, "C57BL/6J mice [5]": {"system": "C57BL/6J mice", "assay": "Black and white box test (light-dark test)", "type": "in vivo", "conditions": "entries to the light zone; i.p.; percent of control (non-treated animals) taken as 100%", "description": "The black and white test (also named light-dark test) is based on the conflict of natural tendencies of rodents to avoid lighted and open areas and to explore novel environments. Relative time spent in exploring each compartment indicates the anxiety level of the animal: Avoidance of the brightly lit area is considered reflecting “anxiety-like” behaviors. When treated with anxiolytic drugs, rodents spend more time in this area, an effect purportedly due to a decrease in anxiety.\nThe C57BL/6J mice were treated intraperitoneally with compound of the invention, then anxiolytic efficacy of compounds of formula I was assessed by estimating the number of entries to the light zone (see Table 1)."}, "C57BL/6J mice [6]": {"system": "C57BL/6J mice", "assay": "Learned helplessness test (compounds of formula I)", "type": "in vivo", "conditions": "percent of control (non-treated animals) taken as 100%; for Latency time, % 1/3 LD50: i.p. dose 1/3 of LD50; for Latency time, % 1/13 LD50: i.p. dose 1/13 of LD50", "protocol": "The learned helplessness test in mice is the well-known animal model to determine antidepressant efficacy of compounds. Basically when animals learned to be helpless are given antidepressant drugs, they unlearn helplessness and start exerting control over their environment.\nThe C57BL/6J mice were treated intraperitoneally with compounds of formula I intraperitoneally at dose corresponding to ⅓ or 1/13 of lethal dose, then antidepressant activity of compounds was assessed by estimating latency time as a period in which animal is not trying to escape from stress (see Table 1)."}, "C57BL/6J mice [7]": {"system": "C57BL/6J mice", "assay": "Toxicity test, median lethal dose after intraperitoneal injection", "type": "in vivo", "protocol": "Toxicity to mammals was measured after intraperitoneal injections of compounds of formula I to C57BL/6J mice. Median lethal dose (LD50) was calculated as described previously (see table 1)."}, "[8]": {"conditions": "10 mg/kg i.p. 24 h, 40 minutes before the experiment (Fluoxetin as powder)"}, "[9]": {"conditions": "90 mg/kg i.p. once daily, 2 days course"}, "[10]": {"conditions": "90 mg/kg i.p. once daily, 6 days course"}, "[11]": {"conditions": "90 mg/kg i.p. once daily, 12 days course"}, "[12]": {"conditions": "100 mg/kg i.p. 24 h, 40 minutes before the experiment"}, "[13]": {"conditions": "100 mg/kg i.p. three times 24 h, 40 min before experiment"}}, "note": "Marks after values point to notes of the source that are not given here."}
{"smiles": "CNCCC(Oc1ccc(C(F)(F)F)cc1)c1ccccc1", "note": "(centres unmarked) [Fluoxetin]", "values": [{"measurement": "Immobility time", "setting": "male white rats [1]; [8]", "value": "337.45 ± 36.69", "unit": "s"}, {"measurement": "Immobility time", "setting": "male white rats [1]; 20 mg/kg 24 h, 40 minutes before the experiment (Fluoxetin as tablet)", "value": "218.45 ± 38.87", "unit": "s"}, {"measurement": "Rotation number", "setting": "male white rats [2]; [8]", "value": "108.34 ± 53.96"}]}
{"smiles": "CN(C)CCCN1c2ccccc2CCc2ccccc21", "note": "[melipramine]", "values": [{"measurement": "Latency time", "setting": "C57BL/6J mice [3]; 7 mg/kg i.p., 2 days course", "value": "13.5 ± 1.8", "unit": "s"}, {"measurement": "Non-escaping animals, %", "setting": "C57BL/6J mice [3]; 7 mg/kg i.p., 2 days course", "value": 43, "unit": "%"}, {"measurement": "Latency time", "setting": "C57BL/6J mice [3]; 7 mg/kg i.p., 6 days course", "value": "11.8 ± 1.5", "unit": "s"}, {"measurement": "Non-escaping animals, %", "setting": "C57BL/6J mice [3]; 7 mg/kg i.p., 6 days course", "value": 29, "unit": "%"}, {"measurement": "Latency time", "setting": "C57BL/6J mice [3]; 7 mg/kg i.p., 12 days course", "value": "9.2 ± 1.1", "unit": "s"}, {"measurement": "Non-escaping animals, %", "setting": "C57BL/6J mice [3]; 7 mg/kg i.p., 12 days course", "value": "11* %"}]}
{"smiles": "O=C(CCNNC(=O)c1ccncc1)NCc1ccccc1", "note": "[Nyalamidum]", "values": [{"measurement": "LD50", "setting": "[4]", "value": 820, "unit": "mg/kg"}]}
{"smiles": "CC1(C)NN1CCCCN1NC1(C)C", "note": "[Ic, meso-1S,2S,1′R,2′R-1-[4-(3,3-dimethyldiaziridin-1-yl)butyl]-3,3-dimethyldiaziridine]", "values": [{"measurement": "Number of entries, %", "setting": "C57BL/6J mice [5]", "value": "62** %"}, {"measurement": "Latency time, % 1/3 LD50", "setting": "C57BL/6J mice [6]", "value": "188** %"}, {"measurement": "Latency time, % 1/13 LD50", "setting": "C57BL/6J mice [6]", "value": 104, "unit": "%"}, {"measurement": "LD50", "setting": "C57BL/6J mice [7]", "value": 1000, "unit": "mg/kg"}]}
{"smiles": "CC1(C)NN1CCN1NC12CCCCC2", "note": "[Ie, meso-1S,2S,1′R,2′R-1-[2-(3,3-dimethyldiaziridin-1-yl)ethyl]-1,2-diazaspiro[2.5]octane]", "values": [{"measurement": "Number of entries, %", "setting": "C57BL/6J mice [5]", "value": "75** %"}, {"measurement": "Latency time, % 1/3 LD50", "setting": "C57BL/6J mice [6]", "value": "62** %"}, {"measurement": "Latency time, % 1/13 LD50", "setting": "C57BL/6J mice [6]", "value": "74** %"}, {"measurement": "LD50", "setting": "C57BL/6J mice [7]", "value": 1125, "unit": "mg/kg"}]}
{"smiles": "Cc1ccc2c(c1)c1c3n2CCNC3CCC1", "note": "(centres unmarked) [pirazidole]", "values": [{"measurement": "Latency time", "setting": "C57BL/6J mice [3]; 10 mg/kg i.p., 2 days course", "value": "13.6 ± 1.1", "unit": "s"}, {"measurement": "Non-escaping animals, %", "setting": "C57BL/6J mice [3]; 10 mg/kg i.p., 2 days course", "value": 39, "unit": "%"}, {"measurement": "Latency time", "setting": "C57BL/6J mice [3]; 10 mg/kg i.p., 6 days course", "value": "10.0 ± 1.4", "unit": "s"}, {"measurement": "Non-escaping animals, %", "setting": "C57BL/6J mice [3]; 10 mg/kg i.p., 6 days course", "value": 18, "unit": "%"}, {"measurement": "Latency time", "setting": "C57BL/6J mice [3]; 10 mg/kg i.p., 12 days course", "value": "8.3 ± 0.7", "unit": "s"}, {"measurement": "Non-escaping animals, %", "setting": "C57BL/6J mice [3]; 10 mg/kg i.p., 12 days course", "value": "14* %"}]}
{"smiles": "CN(C)CCCC1(c2ccc(F)cc2)OCc2cc(C#N)ccc21", "note": "(centres unmarked) [cypramile]", "values": [{"measurement": "LD50", "setting": "[4]", "value": 1.7, "unit": "mg/kg"}]}
{"smiles": "C1CCC2(C1)NN2CCN1NC12CCCC2", "note": "[If, meso-1S,2S,1′R,2′R-1-[2-(1,2-diazaspiro[2.4]hept-1-yl)ethyl]-1,2-diazaspiro[2.4]heptane]", "values": [{"measurement": "Number of entries, %", "setting": "C57BL/6J mice [5]", "value": "60** %"}, {"measurement": "Latency time, % 1/3 LD50", "setting": "C57BL/6J mice [6]", "value": 95, "unit": "%"}, {"measurement": "Latency time, % 1/13 LD50", "setting": "C57BL/6J mice [6]", "value": 94, "unit": "%"}, {"measurement": "LD50", "setting": "C57BL/6J mice [7]", "value": 1150, "unit": "mg/kg"}]}
{"smiles": "C1CCC2(CC1)NN2CCN1NC12CCCCC2", "note": "[Ia, meso-1S,2S,1′R,2′R-1-[2-(1,2-diazaspiro[2.5]oct-1-yl)ethyl]-1,2-diazaspiro[2.5]octane]", "values": [{"measurement": "Number of entries, %", "setting": "C57BL/6J mice [5]", "value": "56** %"}, {"measurement": "Latency time, % 1/3 LD50", "setting": "C57BL/6J mice [6]", "value": "56** %"}, {"measurement": "Latency time, % 1/13 LD50", "setting": "C57BL/6J mice [6]", "value": "72** %"}, {"measurement": "LD50", "setting": "C57BL/6J mice [7]", "value": 611, "unit": "mg/kg"}, {"measurement": "Latency time", "setting": "C57BL/6J mice [3]; [9]", "value": "13.6 ± 1.1", "unit": "s"}, {"measurement": "Non-escaping animals, %", "setting": "C57BL/6J mice [3]; [9]", "value": "18** %"}, {"measurement": "Latency time", "setting": "C57BL/6J mice [3]; [10]", "value": "7.5 ± 0.9", "unit": "s"}, {"measurement": "Non-escaping animals, %", "setting": "C57BL/6J mice [3]; [10]", "value": "12** %"}, {"measurement": "Latency time", "setting": "C57BL/6J mice [3]; [11]", "value": "6.2 ± 0.5", "unit": "s"}, {"measurement": "Non-escaping animals, %", "setting": "C57BL/6J mice [3]; [11]", "value": "1.4** %"}, {"measurement": "effect of single doses in learned helplessness test", "setting": "C57BL/6J mice [3]; single dose", "value": "not effective"}]}
{"smiles": "[H][N@]1[N@@](CC[N@@]2[N@]([H])C2(C)C)C1(C)C", "note": "[I′, meso-1S,2S,1′R,2′R-1-[2-(3,3-dimethyldiaziridin-1-yl)ethyl]-3,3-dimethyldiaziridine]", "values": [{"measurement": "Immobility time", "setting": "male white rats [1]; [12]", "value": "291.55 ± 43.94", "unit": "s"}, {"measurement": "antidepressant activity (behavioral despair test)", "setting": "male white rats [1]; [13]", "value": "significant antidepressant activity"}, {"measurement": "time after which antidepressive effect was observed", "setting": "C57BL/6J mice [3]; 90 mg/kg i.p. once daily, earlier than for comparative drugs", "value": 2, "unit": "days"}, {"measurement": "Rotation number", "setting": "male white rats [2]; [12]", "value": "156.48 ± 26.79"}, {"measurement": "antidepressant activity (modified behavioral despair test)", "setting": "male white rats [2]; [13]", "value": "significant antidepressant activity"}]}
{"smiles": "CN(C)CCC=C1c2ccccc2CCc2ccccc21", "note": "[Amitriptyline, reference compound]", "values": [{"measurement": "Immobility time", "setting": "male white rats [1]; [8]", "value": "145.62 ± 45.39", "unit": "s"}, {"measurement": "Rotation number", "setting": "male white rats [2]; [8]", "value": "165.93 ± 35.41"}]}
